# From patent US11458198B2, “HPV epitopes targeted by T cells infiltrating cervical malignancies for use in vaccines” (Academisch Ziekenhuis Leiden H.O.D.N. LUMC, priority 2007, dated 2022)
# Experiments:
# Assay type in all cases: cell-based, human
# [1] = system: skin test infiltrating lymphocytes; experiment: Intracellular cytokine staining of T cell cultures from positive skin reaction sites
# Excerpt: Skin tests, based on Delayed Type Hypersensitivity reactions (DTH), can be used as a sensitive and simple method for in vivo measurement of HPV-specific cellular immune responses (Hopfl, 2000; Hopfl, 1991). The skin test preparations consisted of 8 pools of long clinical-grade synthetic peptides spanning the whole HPV 16 E6 and E7 protein and the most immunogenic regions of HPV 16 E2 protein (de Jong, 2004). These clinical grade peptides were produced in the interdivisional GMP-Facility of the LUMC. Each pool of the skin test consisted of 2 or 3 synthetic peptides, indicated by the first and last amino acid of the region in the protein covered by the peptides. Pool 1: E231-60, E246-75, Pool 2: E2301-330, E2316-345, Pool 3: E61-31, E619-50 (SEQ ID NO: 28), Pool 4: E641-65 (SEQ ID NO: 29), E655-80 (SEQ ID NO: 30), E671-95 (SEQ ID NO: 31), Pool 5: E685-109 (SEQ ID NO: 32), E691-122 (SEQ ID NO: 33), Pool 6: E6109-140 (SEQ ID NO: 34), E6127-158 (SEQ ID NO: 35), Pool 7: E71-35 (SEQ ID NO: 36), E722-56 (SEQ ID NO: 37), Pool 8: E743-77 (SEQ ID NO: 38), E764-98 (SEQ ID NO: 39). Pool 3 comprises Seq ID 5, 22 and 23. Pool 4 comprises Seq IDs 7-9. Pool 5 comprises Seq IDs 11 and 12. Pool 6 comprises Seq IDs 13, 14, 24 and 25. Pool 7 comprises Seq ID 15 and 26. Pool 8 comprises Seq IDs 16 and 17. Per peptide pool 0.05 ml of 0.2 mg/ml peptides in 16% DMSO in 20 mM isotonic phosphate buffer (10 μg/peptide) was injected intracutaneously. The pools of peptides and a negative control (dissolvent only) were injected separately at individual skin test sites of the upper arm. Skin test sites were inspected at least three times, at 72 hours and 7 days after injection (Hopfl) of the peptides and at 3 weeks following the first report of a very late skin reaction in one of the first healthy subjects. […]
# The specificity and character of the T cell cultures derived from positive skin reaction sites was tested by ICS as reported previously (de Jong, 2005). […] After incubation at 4° C., the cells were washed, fixed with 1% paraformaldehyde and analyzed by flow cytrometry (FACSscan, BD Biosciences)
# [2] = system: HPV-specific T cell cultures; experiment: Intracellular cytokine staining for IFNγ, type of T cell responding; settings: TIL culture of C265
# Description: (§1) Enumeration of IFNγ producing T cells as measured by intracellular cytokine staining was performed as described earlier (de Jong et al. 2005). Briefly, APC were loaded with cognate peptide or recombinant protein and incubated with T cell cultures. After 1 hour of incubation 10 μg/ml Brefeldin A (Sigma) was added and incubated overnight. Hereafter the cells were fixed with 4% paraformaldehyde (Sigma) and permeabilized with 0.1% Saponin. The samples were subsequently stained with CD4-APC, CD8-PerCP and IFNγ-PE and analyzed by flow cytometry. The minimal peptide recognized by CD8 T cells was analysed by IFNγ ELISPOT (van der Burg et al. 2001, Welters et al. 2006, de Jong et al. 2002). CD8 T cell lines were seeded in triplicate wells at a density of 2×104 on a Multiscreen 96-well plate (Millipore, Etten-Leur, The Netherlands) coated with an IFNγ catch antibody (Mabtech. Nacha, Sweden). The microcultures were stimulated with 5 μg/ml 10-mer peptides and incubated overnight. Analysis of HLA restriction of CD8 T cells was performed using 5 μg/ml 10-mer peptide pulsed PBMC or B-LCL co-cultured with equal numbers of T cells. IFNγ specific spots were stained according to the instructions of the manufacturer (Mabtech). The number of spots was analysed on a fully automated computer assisted video imaging system (BIOSYS).
# HPV-specific T cells = experiment: Fine specificity with single peptides (proliferation and IFNγ production); settings: patients C265, C334, C284, C228 respectively
# Description: T cell cultures (25,000-50,000 cells/well) were tested on pulsed autologous monocytes or irradiated autologous EBVs for the recognition of HPV16 and 18 E6 and E7 peptides (5 μg/ml) and protein (10 μg/ml) in triplicate in a 3 day proliferation assay. After 48 hours supernatant was harvested and stored at −20° C. for cytokine analysis. During the last 16 hours of culture 0.5 μCi/well [^3H]thymidine was added to measure proliferation (van der Burg et al. 2001). Antigen specific IFNγ production was measured by ELISA as described earlier (van der Burg et al. 1999).
# Following the evaluation of HPV-specific reactivity, the 19 responding T cell lines were expanded by stimulation with cognate peptide, cytokine mix and feeder cells. Fifteen of these HPV-specific cultures could be sufficiently expanded for further analysis. The fine specificity of the HPV-specific T cells was determined in short-term stimulation assays using single peptides. Five cultures recognized 2 or more distinct peptides, whereas the other 10 cultures recognized a single peptide (FIG. 1B, Table 1). To assess the type of T cell that responded to antigenic stimulation, the T cell cultures were stimulated with their cognate peptide and protein antigens and the response was analyzed by intra-cellular IFNγ staining (FIG. 2). The majority of the TIL cultures contained HPV-specific CD4+ infiltrating T lymphocytes (n=13 patients, 13 different peptides recognized), whereas HPV-specific CD8^+ T cells infiltrating lymphocytes were found in 6 cultures. In 9 of the HPV-specific T cell lines only a CD4^+ T cell response was detected, in 4 T cell lines both CD4^+ T cells and CD8^+ T cells reacted and in 2 T cell lines only a CD8 T cells response was detected (Table 1, FIG. 2).
# [3] = system: HPV-specific CD4+ and CD8+ T cells; experiment: HLA restriction and minimal epitope (blocking antibodies, partially HLA matched APC, IFNγ ELISPOT); settings: HLA-A*0201-restricted tumor-infiltrating CD8+ T cells
# Description: MHC class II blocking experiments were performed as reported before using murine monoclonal antibodies against HLA-DR (B8.11.2), HLA-DQ (SPV.L3) and HLA-DP (B7/21) (van der Burg et al. 1999). Peptide-pulsed APC were incubated with anti-MHC class II antibodies for 2 hours prior to the addition of T cells.
# as §1, with “Analysis of HLA restriction of CD8 T cells was performed using 5 μg/ml 10-mer peptide pulsed PBMC or B-LCL co-cultured with equal numbers of T cells. IFNγ specific spots were stained according to the instructions of the manufacturer (Mabtech).” left out, “(BIOSYS). […]” for “(BIOSYS).”
substance,measurement,setting,value
"E6127-158: HPV16 E6 amino acids 127-158, clinical-grade long peptide (DKKQRFHNIRGRWTGRCMSCCRSSRTRRETQL; Human papillomavirus type 16)",response of CD8+ T cells isolated from the biopsy,"[1]; HD2, biopsy of pool 6",responded
"HPV16 E6 41-62: 22-mer peptide, amino acids 41-62 of HPV16 E6 (KQQLLRREVYDFAFRDLCIVYR; UniProt P03126 41-62, looked up, fragment)","type of T cell responding, intracellular IFNγ (FIG. 2)",[2],CD4^+ and CD8^+ T cell response
"HPV16 E6109-140: HPV16 E6 amino acids 109-140, clinical-grade long peptide (RCINCQKPLCPEEKQRHLDKKQRFHNIRGRWT; Human papillomavirus type 16)",response of CD8+ T cells isolated from the biopsy,"[1]; HD2, biopsy of pool 6",responded
"HPV16E6 peptide 137-158: 22-mer peptide, amino acids 137-158 of HPV16 E6 (GRWTGRCMSCCRSSRTRRETQL; UniProt P03126 137-158, looked up, fragment)","response of bulk culture to single peptide, proliferation and IFNγ production (FIG. 1B)",HPV-specific T cells,responded
HPV16E6.37-68: amino acids 37-68 of HPV16 E6 protein (CVYCKQQLLRREVYDFAFRDLCIVYRDGNPYA; Human papillomavirus type 16),"response of bulk culture to single peptide, proliferation and IFNγ production (FIG. 1B)",HPV-specific T cells,responded
same,response of CD8+ T cells isolated from the biopsy,[1]; subjects HD15 and HD16,responded
"HPV16E7 peptide 71-92: 22-mer peptide, amino acids 71-92 of HPV16 E7 (STHVDIRTLEDLLMGTLGIVCP; UniProt P03129 71-92, looked up, fragment)","response of bulk culture to single peptide, proliferation and IFNγ production (FIG. 1B)",HPV-specific T cells,responded
HPV16E7.11-19: amino acids 11-19 of HPV16 E7 protein (IVLHLEPQN; Human papillomavirus type 16),reactivity of CD8+ T cells compared with HPV16 E7.11-20,[3],stronger reactivity
HPV18E7.21-42: amino acids 21-42 of HPV18 E7 protein (IPVDLLCHEQLSDSEEENDEID; Human papillomavirus type 18),"response of bulk culture to single peptide, proliferation and IFNγ production (FIG. 1B)",HPV-specific T cells,responded
